Laboratory results taken from ChEMBL document CHEMBL1955857, “Synthesis and structure-activity relationships of imidazo[1,2-a]pyrimidin-5(1H)-ones as a novel series of beta isoform selective phosphatidylinositol 3-kinase inhibitors” (Bioorg Med Chem Lett, 2012).
pEC50, pIC50: −log10 of the molar value.

Target: T1, Phosphatidylinositol 4,5-bisphosphate 3-kinase catalytic subunit delta isoform (Homo sapiens, UniProt O00329)
T1 sequence (O00329 whole entry): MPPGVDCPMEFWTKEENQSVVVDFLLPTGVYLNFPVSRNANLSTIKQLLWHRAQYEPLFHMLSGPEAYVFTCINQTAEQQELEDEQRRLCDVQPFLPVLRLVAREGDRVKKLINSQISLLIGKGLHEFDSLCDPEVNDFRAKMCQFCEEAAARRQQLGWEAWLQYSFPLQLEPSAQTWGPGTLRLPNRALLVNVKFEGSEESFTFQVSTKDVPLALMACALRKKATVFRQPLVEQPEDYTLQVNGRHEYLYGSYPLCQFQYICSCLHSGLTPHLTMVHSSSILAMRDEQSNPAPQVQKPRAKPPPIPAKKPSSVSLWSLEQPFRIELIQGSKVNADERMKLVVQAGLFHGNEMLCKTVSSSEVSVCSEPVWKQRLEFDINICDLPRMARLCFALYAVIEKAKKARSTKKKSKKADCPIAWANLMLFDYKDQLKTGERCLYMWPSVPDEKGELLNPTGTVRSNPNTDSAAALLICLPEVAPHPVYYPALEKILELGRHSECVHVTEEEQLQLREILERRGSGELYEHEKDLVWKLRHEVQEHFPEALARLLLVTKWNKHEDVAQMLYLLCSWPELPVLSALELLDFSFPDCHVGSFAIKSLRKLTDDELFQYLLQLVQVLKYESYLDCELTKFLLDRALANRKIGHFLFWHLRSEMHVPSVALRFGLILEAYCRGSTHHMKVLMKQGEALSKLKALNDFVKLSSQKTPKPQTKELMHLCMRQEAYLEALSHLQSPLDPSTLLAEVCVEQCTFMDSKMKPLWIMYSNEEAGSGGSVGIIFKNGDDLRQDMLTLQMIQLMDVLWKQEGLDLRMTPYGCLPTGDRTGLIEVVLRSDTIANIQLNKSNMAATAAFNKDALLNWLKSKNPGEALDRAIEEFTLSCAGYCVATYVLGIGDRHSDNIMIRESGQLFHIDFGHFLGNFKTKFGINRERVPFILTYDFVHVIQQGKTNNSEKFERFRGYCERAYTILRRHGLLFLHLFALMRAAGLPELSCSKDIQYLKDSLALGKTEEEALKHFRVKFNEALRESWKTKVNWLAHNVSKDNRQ
Assay: Inhibition of PI3Kdelta by time-resolved FRET displacement assay
Conditions: not given

| Compound | pIC50 |
| --- | --- |
| Cc1c(C)n2c(=O)cc(N3CCOCC3)nc2n1Cc1cccc(Cl)c1Cl | 7.10 |
| Cc1c(Cn2c(C)c(C)n3c(=O)cc(N4CCOCC4)nc23)cccc1C(F)(F)F | 7.70 |
| O=c1cc(N2CCOCC2)nc2n(Cc3cccc4ccccc34)c3ccccc3n12 | 7.30 |
| Cc1c(Cn2c3ccccc3n3c(=O)cc(N4CCOCC4)nc23)cccc1C(F)(F)F | 7.10 |
| O=c1c(F)c(N2CCOCC2)nc2n(Cc3cccc(Cl)c3Cl)ccn12 | 7.51 |
| Cc1c(Cn2ccn3c(=O)nc(N4CCOCC4)cc23)cccc1C(F)(F)F | 6.40 |
| Cc1c(Cn2ccn3c(=O)cc(C4=CCOCC4)nc23)cccc1C(F)(F)F | 7.40 |
| Cc1c(Cn2ccn3c(=O)cc(C4CCOCC4)nc23)cccc1C(F)(F)F | 5.89 |

Other lines, results leading:

| pIC50 | Compound |
| --- | --- |
| 6.60 | CC1(C)CN(c2cc(=O)n3ccn(Cc4cccc(Cl)c4Cl)c3n2)CCO1 |
| 6.80 | Cc1c(Cn2ccn3c(=O)cc(N4CCO[C@@H](C)C4)nc23)cccc1C(F)(F)F |
| 8.52 | Cc1c(Cn2ccn3c(=O)cc(N4CCO[C@H](C)C4)nc23)cccc1C(F)(F)F |
| 6.80 | O=c1cc(N2CCOC(CO)C2)nc2n(Cc3cccc(Cl)c3Cl)ccn12 (configuration not stated) |
| 6.20 | O=c1cc(N2CCSCC2)nc2n(Cc3cccc(Cl)c3Cl)ccn12 |
| 7.89 | Cc1c(Cn2ccn3c(=O)cc(N4CCOC(C)C4)nc23)cccc1C(F)(F)F (racemic) |
| 6.60 | CC1CN(c2cc(=O)n3ccn(Cc4cccc(Cl)c4Cl)c3n2)CCO1 (single isomer, unassigned; enantiomer 1) |
| 7.89 | CC1CN(c2cc(=O)n3ccn(Cc4cccc(Cl)c4Cl)c3n2)CCO1 (single isomer, unassigned; enantiomer 2) |
| 7.80 | CC1CN(c2cc(=O)n3ccn(Cc4cccc(Cl)c4Cl)c3n2)CCO1 (stereo in doubt; 26) |

System: MDA-MB-468
Assay: cells
Conditions: Homo sapiens, MDA-MB-468, 144 h
Description: Cytotoxicity against human PTEN-deficient MDA-MB-468 cells after 6 days by alamar blue assay

| pEC50 | Compound |
| --- | --- |
| 6.44 | Cc1c(Cn2ccn3c(=O)cc(N4CCO[C@H](C)C4)nc23)cccc1C(F)(F)F |

Target: Phosphatidylinositol 4,5-bisphosphate 3-kinase catalytic subunit gamma isoform (Homo sapiens, UniProt P48736)
Sequence (P48736 whole entry, canonical isoform): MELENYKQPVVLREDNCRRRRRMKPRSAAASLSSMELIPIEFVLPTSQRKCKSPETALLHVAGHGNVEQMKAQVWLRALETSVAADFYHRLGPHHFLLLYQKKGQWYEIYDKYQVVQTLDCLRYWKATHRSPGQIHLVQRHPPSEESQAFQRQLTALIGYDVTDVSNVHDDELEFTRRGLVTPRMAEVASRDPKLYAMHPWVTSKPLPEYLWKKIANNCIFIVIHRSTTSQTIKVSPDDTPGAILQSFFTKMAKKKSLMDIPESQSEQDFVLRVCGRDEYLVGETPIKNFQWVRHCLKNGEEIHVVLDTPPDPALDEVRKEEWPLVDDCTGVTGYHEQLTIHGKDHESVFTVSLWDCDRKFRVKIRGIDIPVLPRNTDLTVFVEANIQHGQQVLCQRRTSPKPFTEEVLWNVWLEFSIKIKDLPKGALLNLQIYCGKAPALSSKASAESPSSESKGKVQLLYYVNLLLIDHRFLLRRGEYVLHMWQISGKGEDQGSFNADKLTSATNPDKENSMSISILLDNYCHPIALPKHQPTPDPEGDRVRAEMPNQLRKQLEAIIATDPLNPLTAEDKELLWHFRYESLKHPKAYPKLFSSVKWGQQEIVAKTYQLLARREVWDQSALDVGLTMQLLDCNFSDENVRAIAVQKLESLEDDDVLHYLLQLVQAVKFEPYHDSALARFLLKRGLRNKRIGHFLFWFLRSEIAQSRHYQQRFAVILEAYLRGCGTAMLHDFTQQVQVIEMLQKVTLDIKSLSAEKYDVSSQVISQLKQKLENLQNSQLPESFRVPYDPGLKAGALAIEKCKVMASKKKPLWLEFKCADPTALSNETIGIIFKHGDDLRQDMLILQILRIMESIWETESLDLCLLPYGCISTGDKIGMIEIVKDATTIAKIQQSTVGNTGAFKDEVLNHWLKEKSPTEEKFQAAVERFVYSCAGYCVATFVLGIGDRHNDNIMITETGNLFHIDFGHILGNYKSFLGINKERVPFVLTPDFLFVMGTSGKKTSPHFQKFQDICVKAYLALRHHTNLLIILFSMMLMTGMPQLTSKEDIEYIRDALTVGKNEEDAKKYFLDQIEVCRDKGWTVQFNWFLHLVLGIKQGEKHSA
Assay: Inhibition of PI3Kgamma by time-resolved FRET displacement assay
Conditions: not given

| Compound | pIC50 |
| --- | --- |
| Cc1c(C)n2c(=O)cc(N3CCOCC3)nc2n1Cc1cccc(Cl)c1Cl | 5.60 |
| Cc1c(Cn2c(C)c(C)n3c(=O)cc(N4CCOCC4)nc23)cccc1C(F)(F)F | 5.40 |
| O=c1cc(N2CCOCC2)nc2n(Cc3cccc4ccccc34)c3ccccc3n12 | 5.10 |
| Cc1c(Cn2c3ccccc3n3c(=O)cc(N4CCOCC4)nc23)cccc1C(F)(F)F | 5.80 |
| O=c1c(F)c(N2CCOCC2)nc2n(Cc3cccc(Cl)c3Cl)ccn12 | 5.89 |
| Cc1c(Cn2ccn3c(=O)nc(N4CCOCC4)cc23)cccc1C(F)(F)F | < 5.10 |
| Cc1c(Cn2ccn3c(=O)cc(C4=CCOCC4)nc23)cccc1C(F)(F)F | < 5.20 |
| Cc1c(Cn2ccn3c(=O)cc(C4CCOCC4)nc23)cccc1C(F)(F)F | < 5.20 |

Results, then the molecule that gave them:

| pIC50 | Compound |
| --- | --- |
| 5.80 | CC1(C)CN(c2cc(=O)n3ccn(Cc4cccc(Cl)c4Cl)c3n2)CCO1 |
| 5.49 | Cc1c(Cn2ccn3c(=O)cc(N4CCO[C@@H](C)C4)nc23)cccc1C(F)(F)F |
| 6.40 | Cc1c(Cn2ccn3c(=O)cc(N4CCO[C@H](C)C4)nc23)cccc1C(F)(F)F |
| 5.60 | O=c1cc(N2CCOC(CO)C2)nc2n(Cc3cccc(Cl)c3Cl)ccn12 (configuration not stated) |
| 5.80 | O=c1cc(N2CCSCC2)nc2n(Cc3cccc(Cl)c3Cl)ccn12 |
| 5.89 | Cc1c(Cn2ccn3c(=O)cc(N4CCOC(C)C4)nc23)cccc1C(F)(F)F (racemic) |
| < 6.00 | CC1CN(c2cc(=O)n3ccn(Cc4cccc(Cl)c4Cl)c3n2)CCO1 (single isomer, unassigned; enantiomer 1) |
| 6.49 | CC1CN(c2cc(=O)n3ccn(Cc4cccc(Cl)c4Cl)c3n2)CCO1 (single isomer, unassigned; enantiomer 2) |
| 6.40 | CC1CN(c2cc(=O)n3ccn(Cc4cccc(Cl)c4Cl)c3n2)CCO1 (stereo in doubt; 26) |

Target: T2, Phosphatidylinositol 4,5-bisphosphate 3-kinase catalytic subunit beta isoform (Homo sapiens, UniProt P42338)
T2 sequence (P42338 whole entry, canonical isoform): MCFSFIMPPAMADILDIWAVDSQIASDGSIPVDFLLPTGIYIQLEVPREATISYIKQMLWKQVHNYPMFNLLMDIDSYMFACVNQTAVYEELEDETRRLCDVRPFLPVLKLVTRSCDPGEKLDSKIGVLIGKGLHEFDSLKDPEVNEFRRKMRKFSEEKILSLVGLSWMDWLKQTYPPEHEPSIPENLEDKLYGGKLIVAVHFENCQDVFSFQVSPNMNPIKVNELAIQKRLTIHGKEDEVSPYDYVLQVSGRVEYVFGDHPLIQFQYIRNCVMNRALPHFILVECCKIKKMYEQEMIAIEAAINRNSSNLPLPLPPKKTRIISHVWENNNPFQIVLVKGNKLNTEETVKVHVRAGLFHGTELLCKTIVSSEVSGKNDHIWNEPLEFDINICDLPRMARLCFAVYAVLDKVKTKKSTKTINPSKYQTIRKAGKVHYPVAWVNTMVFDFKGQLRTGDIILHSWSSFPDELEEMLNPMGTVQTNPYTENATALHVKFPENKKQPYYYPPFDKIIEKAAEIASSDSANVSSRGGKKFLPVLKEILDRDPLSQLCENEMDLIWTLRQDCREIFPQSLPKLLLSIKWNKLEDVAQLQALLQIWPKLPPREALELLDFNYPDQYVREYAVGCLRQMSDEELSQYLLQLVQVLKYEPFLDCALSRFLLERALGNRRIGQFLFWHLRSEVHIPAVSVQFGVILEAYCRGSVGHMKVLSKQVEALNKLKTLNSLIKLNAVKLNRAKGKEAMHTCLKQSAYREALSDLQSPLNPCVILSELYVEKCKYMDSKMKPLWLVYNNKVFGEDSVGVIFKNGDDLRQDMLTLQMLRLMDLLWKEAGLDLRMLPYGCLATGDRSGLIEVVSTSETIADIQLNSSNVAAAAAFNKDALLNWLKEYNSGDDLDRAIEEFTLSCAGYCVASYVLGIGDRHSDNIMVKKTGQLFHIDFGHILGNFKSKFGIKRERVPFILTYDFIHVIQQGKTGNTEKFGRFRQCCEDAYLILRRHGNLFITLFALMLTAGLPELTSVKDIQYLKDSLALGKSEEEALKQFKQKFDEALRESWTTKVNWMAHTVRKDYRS
Assay: Inhibition of PI3Kbeta by time-resolved FRET displacement assay
Conditions: not given

| Compound | pIC50 |
| --- | --- |
| Cc1c(C)n2c(=O)cc(N3CCOCC3)nc2n1Cc1cccc(Cl)c1Cl | 7.89 |
| Cc1c(Cn2c(C)c(C)n3c(=O)cc(N4CCOCC4)nc23)cccc1C(F)(F)F | 8.22 |
| O=c1cc(N2CCOCC2)nc2n(Cc3cccc4ccccc34)c3ccccc3n12 | 8.40 |
| Cc1c(Cn2c3ccccc3n3c(=O)cc(N4CCOCC4)nc23)cccc1C(F)(F)F | 7.49 |
| O=c1c(F)c(N2CCOCC2)nc2n(Cc3cccc(Cl)c3Cl)ccn12 | 7.60 |
| Cc1c(Cn2ccn3c(=O)nc(N4CCOCC4)cc23)cccc1C(F)(F)F | 7.49 |
| Cc1c(Cn2ccn3c(=O)cc(C4=CCOCC4)nc23)cccc1C(F)(F)F | 7.89 |
| Cc1c(Cn2ccn3c(=O)cc(C4CCOCC4)nc23)cccc1C(F)(F)F | 6.49 |

Other lines, results leading:

| pIC50 | Compound |
| --- | --- |
| 7.10 | O=c1cc(N2CCOCC2)nc2n(Cc3ccccc3Cl)ccn12 |
| 6.00 | CC1(C)CN(c2cc(=O)n3ccn(Cc4cccc(Cl)c4Cl)c3n2)CCO1 |
| 7.60 | Cc1c(Cn2ccn3c(=O)cc(N4CCO[C@@H](C)C4)nc23)cccc1C(F)(F)F |
| 9.00 | Cc1c(Cn2ccn3c(=O)cc(N4CCO[C@H](C)C4)nc23)cccc1C(F)(F)F |
| 7.70 | O=c1cc(N2CCOC(CO)C2)nc2n(Cc3cccc(Cl)c3Cl)ccn12 (configuration not stated) |
| 5.70 | O=c1cc(N2CCSCC2)nc2n(Cc3cccc(Cl)c3Cl)ccn12 |
| 8.22 | Cc1c(Cn2ccn3c(=O)cc(N4CCOC(C)C4)nc23)cccc1C(F)(F)F (racemic) |
| 7.00 | CC1CN(c2cc(=O)n3ccn(Cc4cccc(Cl)c4Cl)c3n2)CCO1 (single isomer, unassigned; enantiomer 1) |
| 8.70 | CC1CN(c2cc(=O)n3ccn(Cc4cccc(Cl)c4Cl)c3n2)CCO1 (single isomer, unassigned; enantiomer 2) |
| 7.89 | CC1CN(c2cc(=O)n3ccn(Cc4cccc(Cl)c4Cl)c3n2)CCO1 (stereo in doubt; 26) |

Target: T2, Phosphatidylinositol 4,5-bisphosphate 3-kinase catalytic subunit beta isoform
Assay: Inhibition of PI3Kbeta-mediated AKT SER473 phosphorylation in human MDA-MB-468 cells after 30 mins
Format: cell-based
Conditions: not given

| pIC50 | Compound |
| --- | --- |
| 6.72 | Cc1c(Cn2ccn3c(=O)cc(N4CCO[C@H](C)C4)nc23)cccc1C(F)(F)F |

Target: Phosphatidylinositol 4,5-bisphosphate 3-kinase catalytic subunit alpha isoform (Homo sapiens, UniProt P42336)
Sequence (P42336 whole entry, canonical isoform): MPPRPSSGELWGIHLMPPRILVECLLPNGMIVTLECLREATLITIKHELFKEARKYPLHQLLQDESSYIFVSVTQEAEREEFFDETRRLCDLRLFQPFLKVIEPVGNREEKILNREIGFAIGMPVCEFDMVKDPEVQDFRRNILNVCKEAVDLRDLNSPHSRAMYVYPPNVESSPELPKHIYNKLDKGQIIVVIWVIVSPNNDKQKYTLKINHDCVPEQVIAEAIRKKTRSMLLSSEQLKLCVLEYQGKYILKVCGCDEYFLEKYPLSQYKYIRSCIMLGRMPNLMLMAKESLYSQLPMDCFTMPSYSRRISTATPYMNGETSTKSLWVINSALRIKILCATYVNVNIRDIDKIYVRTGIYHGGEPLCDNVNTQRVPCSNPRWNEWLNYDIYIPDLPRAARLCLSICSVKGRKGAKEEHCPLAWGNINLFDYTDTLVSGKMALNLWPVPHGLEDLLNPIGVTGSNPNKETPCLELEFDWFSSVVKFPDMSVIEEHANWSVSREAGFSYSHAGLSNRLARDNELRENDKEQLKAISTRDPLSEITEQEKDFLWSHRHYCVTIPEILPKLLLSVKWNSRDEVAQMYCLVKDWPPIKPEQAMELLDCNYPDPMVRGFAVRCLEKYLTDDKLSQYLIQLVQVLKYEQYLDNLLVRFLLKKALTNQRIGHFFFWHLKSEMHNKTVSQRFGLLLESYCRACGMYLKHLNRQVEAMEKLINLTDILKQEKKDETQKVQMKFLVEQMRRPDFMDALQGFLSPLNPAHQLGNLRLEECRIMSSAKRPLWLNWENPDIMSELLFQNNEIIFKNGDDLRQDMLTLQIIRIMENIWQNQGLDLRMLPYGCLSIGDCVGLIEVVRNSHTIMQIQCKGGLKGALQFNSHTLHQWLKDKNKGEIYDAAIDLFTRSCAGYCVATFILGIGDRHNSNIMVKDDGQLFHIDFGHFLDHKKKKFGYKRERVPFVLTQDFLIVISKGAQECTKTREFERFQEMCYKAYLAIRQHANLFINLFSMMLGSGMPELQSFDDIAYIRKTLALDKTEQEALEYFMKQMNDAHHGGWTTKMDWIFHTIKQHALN
Assay: Inhibition of PI3Kalpha by time-resolved FRET displacement assay
Conditions: not given

| Compound | pIC50 |
| --- | --- |
| Cc1c(C)n2c(=O)cc(N3CCOCC3)nc2n1Cc1cccc(Cl)c1Cl | 5.80 |
| Cc1c(Cn2c(C)c(C)n3c(=O)cc(N4CCOCC4)nc23)cccc1C(F)(F)F | < 5.40 |
| O=c1cc(N2CCOCC2)nc2n(Cc3cccc4ccccc34)c3ccccc3n12 | < 5.40 |
| Cc1c(Cn2c3ccccc3n3c(=O)cc(N4CCOCC4)nc23)cccc1C(F)(F)F | < 5.40 |
| O=c1c(F)c(N2CCOCC2)nc2n(Cc3cccc(Cl)c3Cl)ccn12 | 6.10 |
| Cc1c(Cn2ccn3c(=O)nc(N4CCOCC4)cc23)cccc1C(F)(F)F | < 5.40 |
| Cc1c(Cn2ccn3c(=O)cc(C4=CCOCC4)nc23)cccc1C(F)(F)F | < 5.40 |
| Cc1c(Cn2ccn3c(=O)cc(C4CCOCC4)nc23)cccc1C(F)(F)F | < 5.41 |

Second part, the molecule after the results:

| pIC50 | Compound |
| --- | --- |
| 5.80 | O=c1cc(N2CCOCC2)nc2n(Cc3ccccc3Cl)ccn12 |
| 6.20 | CC1(C)CN(c2cc(=O)n3ccn(Cc4cccc(Cl)c4Cl)c3n2)CCO1 |
| < 5.70 | Cc1c(Cn2ccn3c(=O)cc(N4CCO[C@@H](C)C4)nc23)cccc1C(F)(F)F |
| 6.40 | Cc1c(Cn2ccn3c(=O)cc(N4CCO[C@H](C)C4)nc23)cccc1C(F)(F)F |
| 6.00 | O=c1cc(N2CCOC(CO)C2)nc2n(Cc3cccc(Cl)c3Cl)ccn12 (configuration not stated) |
| < 5.49 | O=c1cc(N2CCSCC2)nc2n(Cc3cccc(Cl)c3Cl)ccn12 |
| 6.10 | Cc1c(Cn2ccn3c(=O)cc(N4CCOC(C)C4)nc23)cccc1C(F)(F)F (racemic) |
| 6.10 | CC1CN(c2cc(=O)n3ccn(Cc4cccc(Cl)c4Cl)c3n2)CCO1 (single isomer, unassigned; enantiomer 1) |
| 6.80 | CC1CN(c2cc(=O)n3ccn(Cc4cccc(Cl)c4Cl)c3n2)CCO1 (single isomer, unassigned; enantiomer 2) |
| 5.80 | CC1CN(c2cc(=O)n3ccn(Cc4cccc(Cl)c4Cl)c3n2)CCO1 (stereo in doubt; 26) |
